According to ChEMBL document CHEMBL4138191, “Organic arsenicals target thioredoxin reductase followed by oxidative stress and mitochondrial dysfunction resulting in apoptosis” (Eur J Med Chem, 2018):
Activity calls are given as the source filed them. The rule behind the calls is not given here.

Tests used:
MCF7 [1] = assay: Cytotoxicity against human MCF7 cells after 24 hrs by MTT assay; assay type: functional, cell-based; conditions: for IC50: MCF7, 24 h
SGC-7901 [2] = assay: Cytotoxicity against human SGC7901 cells after 48 hrs by MTT assay; assay type: functional, cell-based; conditions: for IC50: SGC-7901, 48 h
GES1 = assay: Cytotoxicity against human GES-1 cells after 24 hrs by MTT assay; assay type: cell-based; conditions: for IC50: Homo sapiens, GES1, 24 h; for Activity: human, ges1, 24 h
HL-60 [3] = assay: Cytotoxicity against human HL60 cells by MTT assay; assay type: functional, cell-based; conditions: TDE = time-dependent effect
MCF7 [4] = assay: Cytotoxicity against human MCF7 cells by MTT assay; assay type: functional, cell-based; conditions: TDE = time-dependent effect
SGC-7901 [5] = assay: Cytotoxicity against human SGC7901 cells by MTT assay; assay type: functional, cell-based; conditions: TDE = time-dependent effect
HL-60 [6] = assay: Induction of ROS generation in human HL60 cells at 1.5 uM after 24 hrs in presence of antioxidant lipoic acid by DCFH-DA staining-based flow cytometry; assay type: functional, cell-based
HL-60 [7] = assay: Induction of ROS generation in human HL60 cells at 1.5 uM after 24 hrs by DCFH-DA or DHE staining-based fluorescence microscopic analysis; assay type: functional, cell-based
HL-60 [8] = assay: Induction of ROS generation in human HL60 cells assessed as reduction in intracellular thiols up to 2.5 uM incubated for 12 to 24 hrs by DTNB titration method; assay type: functional, cell-based
HL-60 [9] = assay: Potentiation of H2O2-induced cytotoxicity in human HL60 cells assessed as induction of cell death at 1.5 to 2 uM preincubated for 6 hrs followed by compound washout and subsequent H2O2 addition measured after 18 hrs by MTT assay; assay type: functional, cell-based
HL-60 [10] = assay: Induction of cell death in human HL60 cells assessed as decrease in total GSH levels after 24 hrs by MTT assay; assay type: functional, cell-based
HL-60 [11] = assay: Induction of apoptosis in human HL60 cells assessed as necrotic cells at 0.75 to 1.5 uM after 24 hrs by Annexin V-FITC/propidium iodide staining-based flow cytometry; assay type: functional
HL-60 [12] = assay: Induction of apoptosis in human HL60 cells assessed as apoptotic cells at 0.75 to 1.5 uM after 24 hrs by Annexin V-FITC/propidium iodide staining-based flow cytometry; assay type: functional
HL-60 [13] = assay: Induction of apoptosis in human HL60 cells assessed as nuclear shrinkage at 0.75 to 1.5 uM after 24 hrs by Hoechst 33342 staining-based laser scanning confocal microscopic analysis; assay type: functional, cell-based
HL-60 [14] = assay: Induction of apoptosis in human HL60 cells assessed as chromatin condensation at 0.75 to 1.5 uM after 24 hrs by Hoechst 33342 staining-based laser scanning confocal microscopic analysis; assay type: functional, cell-based
HL-60 [15] = assay: Induction of apoptosis in human HL60 cells assessed as apoptotic body formation at 0.75 to 1.5 uM after 24 hrs by Hoechst 33342 staining-based laser scanning confocal microscopic analysis; assay type: functional, cell-based
HL-60 [16] = assay: Induction of apoptosis in human HL60 cells assessed as condensed nuclei at 0.75 to 1.5 uM after 24 hrs by Hoechst 33342 staining-based laser scanning confocal microscopic analysis; assay type: functional, cell-based
HL-60 [17] = assay: Induction of apoptosis in human HL60 cells assessed as cell nuclear shrinkage at 0.75 to 1.5 uM after 24 hrs by Hoechst 33342 staining-based laser scanning confocal microscopic analysis; assay type: functional
HL-60 [18] = assay: Induction of apoptosis in human HL60 cells assessed as DNA incision in bulk of cells at 0.75 to 1.5 uM after 24 hrs by Hoechst 33342 staining-based laser scanning confocal microscopic analysis; assay type: functional, cell-based
HL-60 [19] = assay: Induction of apoptosis in human HL60 cells assessed as incomplete cell membrane at 0.75 to 1.5 uM after 24 hrs by Hoechst 33342 staining-based laser scanning confocal microscopic analysis; assay type: functional
HL-60 [20] = assay: Induction of apoptosis in human HL60 cells assessed as abnormal cellular morphology at 0.75 to 1.5 uM after 24 hrs by Hoechst 33342 staining-based laser scanning confocal microscopic analysis; assay type: functional, cell-based
Liver [21] = assay: Induction of mitochondrial dysfunction in Wistar rat liver assessed as swelling at 20 uM in presence of calcium related inhibitor ruthenium red; assay type: functional; conditions: mitochondria
Liver [22] = assay: Induction of mitochondrial dysfunction in Wistar rat liver assessed as swelling at 20 uM in presence of calcium related inhibitor cyclosporine A; assay type: functional; conditions: mitochondria
Liver [23] = assay: Induction of mitochondrial dysfunction in Wistar rat liver assessed as swelling at 20 uM in presence of calcium related inhibitor EGTA; assay type: functional; conditions: mitochondria
HL-60 [24] = assay: Induction of cell death in human HL60 cells at 1 to 1.5 uM after 24 hrs in presence of antioxidant NAC by trypan blue assay; assay type: functional, cell-based
HL-60 [25] = assay: Induction of cell death in human HL60 cells at 1 to 1.5 uM after 24 hrs in presence of antioxidant DTT by trypan blue assay; assay type: functional, cell-based
[26] = biological target: T1, Glutathione reductase, mitochondrial (Homo sapiens) (UniProt P00390); assay: Effect on glutathione reductase catalytic activity in human HL60 cells; assay type: cell-based
T1 sequence (whole entry): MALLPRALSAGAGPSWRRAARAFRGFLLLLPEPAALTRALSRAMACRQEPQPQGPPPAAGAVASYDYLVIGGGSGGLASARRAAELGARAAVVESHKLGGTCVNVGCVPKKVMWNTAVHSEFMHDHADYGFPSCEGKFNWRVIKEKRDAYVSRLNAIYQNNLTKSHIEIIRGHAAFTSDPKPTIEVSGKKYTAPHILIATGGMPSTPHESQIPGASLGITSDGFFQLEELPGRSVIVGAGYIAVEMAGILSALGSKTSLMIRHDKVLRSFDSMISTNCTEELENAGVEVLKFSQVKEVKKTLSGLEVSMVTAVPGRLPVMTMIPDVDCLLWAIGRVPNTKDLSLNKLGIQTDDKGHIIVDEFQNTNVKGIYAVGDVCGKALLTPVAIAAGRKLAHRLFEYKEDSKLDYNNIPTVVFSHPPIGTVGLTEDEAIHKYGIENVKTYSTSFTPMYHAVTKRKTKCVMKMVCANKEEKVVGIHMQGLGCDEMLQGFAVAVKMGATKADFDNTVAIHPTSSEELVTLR

Homo sapiens = organism: Homo sapiens; assay: Effect on glutathione peroxidase catalytic activity in human HL60 cells; assay type: cell-based
HL-60 [27] = assay: Induction of cell death in human HL60 cells at 0.4 uM after 24 hrs in presence of […] BSO by MTT assay; assay type: functional, cell-based
HL-60 [28] = assay: Induction of cell death in human HL60 cells at 1 to 1.5 uM after 24 hrs in presence of antioxidant lipoic acid by trypan blue assay; assay type: functional, cell-based

Structure (SMILES)	Activity (MCF7 [1])	IC50 (MCF7 [1]) [µM]	Activity (SGC-7901 [2])	IC50 (SGC-7901 [2]) [µM]	IC50 (GES1) [µM]	Activity (GES1)	Activity (HL-60 [3])	Activity (MCF7 [4])	Activity (SGC-7901 [5])	Activity (HL-60 [6])	Activity (HL-60 [7])	Activity (HL-60 [8])	Activity (HL-60 [9])	Activity (HL-60 [10])	Activity (HL-60 [11])	Activity (HL-60 [12]) [%]	Activity (HL-60 [13])	Activity (HL-60 [14])	Activity (HL-60 [15])	Activity (HL-60 [16])	further results
Oc1ccccc1/C=N/c1ccc([As]2SCCCS2)cc1	Dose-dependent effect	5.7	Dose-dependent effect	4.05	5.99	Dose-dependent effect	Tde	Tde	Tde	inactive	Active	Active	Active	Dose-dependent effect	<=0.2%	40	Active	Active	Active	Active	Activity (HL-60 [17]): Active; Activity (HL-60 [18]): Active; Activity (HL-60 [19]): Active; Activity (HL-60 [20]): Active; Activity (Liver [21]): inactive; Activity (Liver [22]): inactive; Activity (Liver [23]): inactive; Activity (HL-60 [24]): inactive; Activity (HL-60 [25]): inactive; Activity [26]: inactive; Activity (Homo sapiens): inactive; Activity (HL-60 [27]): Active; Activity (HL-60 [28]): inactive
O=C(Nc1ccc([As]2SCCCS2)cc1)c1ccccc1O	Dose-dependent effect	11.9	Dose-dependent effect	6.75	13.4	Dose-dependent effect	Tde	Tde	Tde	inactive	Active	Active	Active	Dose-dependent effect	<=0.2%	40	Active	Active	Active	Active	Activity (HL-60 [17]): Active; Activity (HL-60 [18]): Active; Activity (HL-60 [19]): Active; Activity (HL-60 [20]): Active; Activity (Liver [21]): inactive; Activity (Liver [22]): inactive; Activity (Liver [23]): inactive; Activity (HL-60 [24]): inactive; Activity (HL-60 [25]): inactive; Activity [26]: inactive; Activity (Homo sapiens): inactive; Activity (HL-60 [27]): Active; Activity (HL-60 [28]): inactive
